Experimental data as given in patent publication US9657071B2, “IgE peptide vaccine” (NIPPON ZENYAKU KOGYO CO., LTD., priority 2012, dated 2017).

Experiments:
[1] = test system: anti-dog IgE monoclonal antibodies; assay: Epitope analysis of synthetic IgE CH3 region peptides by ELISA; type: binding; details: peptide immobilized 100 ng/well, ELISA with anti-IgE monoclonal antibodies
Protocol: Epitope analysis was conducted on mouse monoclonal antibodies binding to a dog IgE antibody and rat monoclonal antibodies binding to dog and mouse IgE antibodies. Mouse anti-dog IgE antibodies (clone name: CCH3-4, CCH5-5, CCH3-12, CCH3-13, CCH3-14, and CCH3-15) were prepared from mice immunized with the dog IgE CH3 (Cε3) region gene. Also, anti-IgE monoclonal antibodies (clone name: X-1, X-2, CCH3-21, and CCH3-22) were prepared from rats immunized with the dog and mouse IgE CH3 (Cε3) region genes. These antibodies were used as samples to synthesize synthetic peptides (SEQ ID NOs: 2 to 20 and 22 to 26) of the dog and mouse IgE peptide CH3 (Cε3) regions consisting of the sequences shown in FIG. 1-1. The epitope analysis was conducted by ELISA. […] The anti-dog IgE monoclonal antibodies that responded to the peptide were detected using secondary antibodies (anti-mouse IgG HRP (horseradish peroxidase)-labeled antibody for the anti-dog IgE antibodies prepared using mice, and anti-rat IgG HRP-labeled antibody for the anti-dog IgE antibodies prepared using rats).

dog IgG = assay: Reactivity of serum of peptide-immunized rabbit with dog IgG (ELISA); type: in vivo; details: 500 μg peptide + complete adjuvant s.c.
Protocol: 2 mL of the 250 μg/mL peptide (a total of 500 μg) used in Example 2 was mixed with an equal amount of a complete adjuvant (a total of 4 mL). Each rabbit was immunized with this mixture by the subcutaneous administration (amount of the peptide: 500 μg) at day 0 and weeks 2, 4, 6, and 8. Blood was collected 5 weeks after the week-8 administration (week 13 counted from day 0). Booster immunization was performed at week 14 counted from day 0, and blood was further collected 2 weeks thereafter (week 16 counted from day 0). Antibody titers in the collected blood were measured by ELISA. The serum of a rabbit that received no peptide was used as a control.
ELISA was performed by the following method: each […] recombinant CH3 solution of dog IgE, human IgE, mouse IgE, dog IgG, and cat IgE was immobilized at a concentration of 100 μL/well (100 ng/well) to a plate. The serum collected from the immunized rabbit was used (×200 to ×102400) as a primary antibody. An enzyme-labeled anti-rabbit IgG antibody (Zymed Laboratories Inc.) was used as a secondary antibody.

dog IgE = assay: Subcutaneous administration test using rats: IgG antibody against dog IgE (ELISA); type: in vivo; details: 50 μg three times, no adjuvant
Protocol: The dog IgE protein (Bethyl Laboratories, Inc.; P115), the mouse IgE protein (BD Biosciences, San Jose, Calif., USA), and the human IgE protein (Athens Research And Technology, Inc.; 16-16-090705-ML) were each prepared at 1 μg/mL, 500 ng/mL, 250 ng/mL, 125 ng/mL, 62.5 ng/mL, 31.2 ng/mL, 15.6 ng/mL, 7.8 ng/mL, 3.9 ng/mL, 1.95 ng/mL, and 0.97 ng/mL in an immobilization buffer (0.05 M carbonate buffer, pH 9.6), then added at a concentration of 100 μL/well to an ELISA plate, and left overnight at 4° C. The immobilization plate was washed once with PBS-T (0.05%). A blocking solution (4× Block Ace, Snow Brand Milk Products Co., Ltd.; UK-B80) was added thereto at a concentration of 200 μL/well. The plate was blocked by incubation at 37° C. for 1.5 hours. The serum was diluted 2000-fold with a diluent (PBS-T:Block Ace=9:1) and used. The serum of an unimmunized rat was similarly diluted and used as a negative control. […] Then, the measurement was performed using a plate reader (Bio-Rad Laboratories, Inc.; model 680) (dual: measurement: 450 nm, control: 570 nm).
This peptide was used in the immunization of rats without the use of an adjuvant, and antibody response to dog IgE was evaluated. […]
Blood was collected every 2 weeks from the administer start date. […] Serum was collected, and an IgG antibody against dog IgE was evaluated by ELISA (FIG. 16). […]

Row | Sequence | epitope in IgE CH3 region peptide [1] | response of immobilized dog IgG to peptide-administered rabbit serum (dog IgG) | level of the rat IgG antibody against dog IgE (dog IgE; intravenous) | level of the rat IgG antibody against dog IgE (dog IgE; subcutaneous)
1 | QEKKTSVSASQWYTKHHNNATTSIT (listed as Mus musculus) [MOUSE CH3-4-17-11] | peptide of an epitope region | responded to neither | – | –
2 | KKTSVSASQWYTKHHNNATT (listed as Mus musculus) [M4-7-11] | – | – | confirmed to elevate | confirmed to elevate
